A value given as a limit tells only on which side of the number the result lay.

`Oc1ccc(CCN2CCC(Cc3nc4c(O)ncnc4n3Cc3ccc(F)cc3)CC2)cc1` gave a melting point of 216 °C.
Molecule `Cn1cc(C(=O)NCc2ccc(Cl)cc2)c(=O)c2cc(C(C)(C)CCO)ccc21` returned a melting point of 135 to 138 °C.
Under `CCc1nccn1-c1ccc(NC(=O)c2ccc(Cl)cc2)cc1` stands 265 to 267 °C.
`c1ccc(N2c3ccccc3Sc3ccccc32)nc1` registered a melting point of 107 to 109 °C.
As for `Nc1nc2ccccc2c2c1nc1n2C(CO)COC1` (stereo not given), the melting point is 239 to 240 °C.
The molecule `COc1ccc(C=Cc2c(Cl)cncc2Cl)c2c1OC1(CCCC1)O2` came in with a melting point of 100 to 101 °C.
Under `CC1=Nc2ccc(-c3sc(C#N)cc3C)cc2C2(CCCC2)O1` stands 58 to 60 °C.
`O=C1CC(c2ccccc2Cl)=Nc2c1cccc2C(=O)OCCO` registered a melting point of 170 to 171 °C.
Under `O=C(O)[C@@H]1CC[C@H](n2nc(-c3c(-c4ccccc4)nn4ccccc34)ccc2=O)C(=O)C1` (relative stereo) stands 186 to 188 °C; under `C=C(c1ccc(-n2ccnc2)nc1)C(O)(Cn1cncn1)c1ccc(F)cc1F` (stereo not given), 145 to 148 °C.
In turn, `Cc1ccc(Oc2ccc(C=O)cc2)cn1` gave a melting point of 45 to 46 °C.
Molecule `COc1nc(C)nc(NC(=O)NS(=O)(=O)c2cccs2)n1` had a melting point of 182 to 184 °C.
As for `Nc1cc(C(=O)c2cccc(C(=O)c3ccc(Cl)c(N)c3)c2)ccc1Cl`, the melting point came to 209 °C.
`Cc1cc(N)nc(CCc2nc3cc(Br)cnc3[nH]2)c1` showed a melting point of 216 °C.
`O=C1Nc2cccc(-c3ccc(Cl)cc3Cl)c2/C1=C/c1ccc[nH]1` registered a melting point of 185 to 187 °C.
`CCn1c(=N)c(-c2c(Cl)cccc2Cl)cc2cnc(SC)nc21` came in with a melting point of 217 to 219 °C.
The molecule `COc1ccc(C2NC(=S)NC(C)=C2C(C)=O)cc1` (racemic) returned a melting point of 175 °C.
Under `COc1ccc(-c2c(NC(=O)Nc3ccc(F)cc3F)c(=O)n(C)c3ccc(C)cc23)cc1OC` stands 231 to 233 °C; under `CCOC(=O)c1cn(CCc2ccccc2)c2occc2c1=O`, 139 to 140 °C; under `CN(CCc1ccc(O)c(O)c1)C(=O)OCc1ccccc1`, 105 to 106 °C.
On to `Cc1cc2cc(CN3CCCCCC3)cnc2cc1NC(=O)c1ccc(-c2ccc(Cl)cc2)cc1F`, for which the melting point was found to be 209 °C.
Consider `COC(=O)c1cn(C)cn1`, for which the melting point was 72.5 to 81 °C.
As to `NCC1Cc2cc(C(F)(F)F)cc(-c3cccc(Cl)c3Cl)c2O1` (stereo not given), the melting point was in the range of 152 to 155 °C.
In turn, `CCCCCCCCCCCCCCOc1ccc(CC(=O)NCc2ccccn2)cc1` displayed a melting point of 86 to 87 °C.
In turn, `CS(=O)(=O)c1ccc(C(CC2CCCC2)C(=O)Nc2nccs2)cc1Br` (stereo not given) returned a melting point of 106 to 107 °C.
As for `COc1ccc2[nH]c(=O)[nH]c2c1`, the melting point was 249 to 251 °C.
`Cc1cc(-c2cnn3c(C(F)(F)F)cc(-c4ccc(C)c(C(F)(F)F)c4)nc23)cc(C)n1` came in with a melting point of 258 °C.
On to `O=Cc1cccc(OCCc2coc(-c3ccccc3)n2)c1`, for which the melting point was in the range of 51 to 53 °C.
Under `Sc1nc2cc3ccccc3cc2[nH]1` stands 303 to 305 °C; under `N#Cc1nn(-c2c(Cl)cc(C(F)(F)F)cc2Cl)c(-n2cncn2)c1S(=O)(=O)C(F)(F)F`, 172 to 174 °C; under `COc1cc(CO)ccc1OCc1nc(N2CCOCC2)sc1C`, 121 to 122 °C.
Under `O=C(O)Cc1ccc2c(c1)NC(=O)CO2` stands 237 to 239 °C; under `C=C1CCC2C3CCC4CC(O)C(OCC)CC4(C)C3C(=O)CC12C` (stereo not given), 103 to 108 °C.
In turn, `OCc1ccc(Cc2ccccc2CO)cc1` gave a melting point of 102 °C.
`CC(=O)Nc1ccc(C23CC2C(=O)N(C)C3=O)cc1` (stereo not given) showed a melting point of 183 to 184 °C.
`COc1ccc(N2CCOCC2)c2sc(NC(=O)N(C)[C@H]3CC[C@@H](OC)CC3)nc12` yielded a melting point of 198 to 200 °C.
The molecule `Cc1cc(C#N)cc(C(=O)c2c(C(C)C)c(=O)[nH]c(=O)n2C(C)C)c1` returned a melting point of 278 to 280 °C.
Consider `CCOCn1c(Sc2ccc(Cl)c(Cl)c2)c(Br)c(C#N)c1-c1ccc(Cl)cc1`, for which the melting point is 105 to 107 °C.
Turning to `C=CC(C)c1cc(C)c2c(c1)C(=O)CC2` (stereo not given), the melting point fell in the range of 88 to 92 °C.
`Cc1noc(C=Cc2ccccc2O)n1` displayed a melting point of 184 to 186 °C.
Under `Cc1c(-c2ccc(O)cc2O)c(=O)oc2cc(O)ccc12` stands 282 to 283 °C; under `CCc1cnccc1C[C@@H](O)C(Cl)(Cl)Cl`, 132 to 134 °C.
`COC(=O)C(Oc1ccc(C(F)(F)F)cc1)c1ccc(OCCCOc2ccc(Cl)cc2)cc1` (stereo not given) came in with a melting point of 83 to 84 °C.
In turn, `CCCC(Br)c1nc2ccccc2n1Cc1ccc(C#N)cc1` (stereo not given) registered a melting point of 135 °C.
As for `COc1cc2c(cc1OC)-c1[nH]c3ccc([N+](=O)[O-])cc3c1CC(=O)N2`, the melting point was more than 330 °C.
Under `Cc1cccc(C)c1NC(=O)Nc1ccc(CC(=O)NC(CC(C)C)c2ncc(CCC(=O)O)s2)cc1` (stereo not given) stands 125 to 127 °C; under `CN(C)Cc1ccc(C2(O)CCC3(CC2)OCCO3)cc1`, 84 to 86 °C.
Molecule `COc1ccc(-c2cc(F)c3c(c2)CC(CN)O3)cc1` (stereo not given) returned a melting point of more than 250 °C.
Regarding `Cc1c(C(=O)OCc2ccccc2)sc2ccc3[nH]c4c(c3c12)CNCC4`, the melting point was found to be 178 °C.
The molecule `CCC1C(C)=NN=C(c2ccc(O)c(OC)c2)c2cc(O)c(O)cc21` (stereo not given) had a melting point of 252 to 253 °C.
Molecule `CC(C)[C@H](NC(=O)CCC(=O)c1ccc(F)cc1)C(=O)O` returned a melting point of 103 to 105 °C.
Turning to `CC1(C)C=C(CN2C/C(=C\c3ccc(F)cc3)C(=O)/C(=C/c3ccc(F)cc3)C2)C(C)(C)N1O`, the melting point lay in the range of 142 to 144 °C.
`c1ccc(C(CCOc2ccc(Cc3nnn[nH]3)cc2)(c2ccccc2)c2ccccc2)cc1` came in with a melting point of 187 to 189 °C.
`COc1ccnc(C(C)Sc2nc3cc(OC(F)F)c(C)cc3[nH]2)c1` (stereo not given): the melting point fell in the range of 183 to 184 °C.
On to `COCOc1ccc(O)cc1OC`, for which the melting point was in the range of 70 to 72 °C.
The molecule `CCOC(=O)CNc1ncccc1NC(=O)c1ccc(OC)cc1` showed a melting point of 130 to 131 °C.
On to `CCCN(CCCc1c[nH]c2ccc(F)cc12)C1COc2c(F)ccc(C(=O)NC)c2C1` (stereo not given), for which the melting point was found to be 123 °C.
Turning to `CCCCOCC(O)COc1cc(C)c(OCC(O)COCCCC)cc1C` (stereo not given), the melting point was less than 30 °C.
For the molecule `COc1ccc(C(=O)Nc2cc([N+](=O)[O-])ccc2Cl)cc1OC`, the melting point is 231 to 232 °C.
In turn, `COc1cc(OC)cc(-c2ncn(C)c2-c2ccc3c(c2)NCCO3)c1` returned a melting point of 175 to 178 °C.
Molecule `CCOC(=O)c1cn(-c2cc(NC=O)c(F)cc2F)c2c(F)c(F)c(F)c(NCc3ccccc3)c2c1=O` showed a melting point of 151 to 156 °C.
As for `Brc1ccc(CN2CCN(c3ccncc3)CC2)cc1`, the melting point lay in the range of 140 to 141 °C.
`C(=C\c1nc2ccccc2n1-c1ccncc1)/c1ccoc1` returned a melting point of 172 °C.
Turning to `Cc1cc2c(c(C)c1NC(=O)CC(C)(C)C)C(c1ccc(C(C)C)cc1)CS2` (stereo not given), the melting point was 151 to 152 °C.
On to `CC(C)(C)c1cc(CC2SCNC2=O)ccc1O` (stereo not given), for which the melting point lay in the range of 65 to 70 °C.
`CN1CCC(=C2c3ccccc3C3=C(c4ccccc42)C2(C)C=CC3O2)CC1` (stereo not given) yielded a melting point of 175 to 177 °C.
In turn, `COc1cccc2[nH]c(C(=O)OCc3ccccc3)cc12` had a melting point of 162 to 164 °C.
The molecule `CC(C)c1ccccc1Sc1c(O)cc(-c2ccc3c(c2)OCCO3)oc1=O` showed a melting point of 246 to 248 °C.
Under `COC(=O)c1c(Cl)cc(Cl)cc1NC(=O)CSc1ccc(NCc2ccc(Cl)cc2)cc1` stands 96 to 98 °C; under `COC(=O)c1ccccc1S(=O)(=O)N1CCC[C@H]1C(=O)N[C@@H](Cc1ccccc1)C(=O)O`, 163 to 165 °C.
Molecule `CC(=O)c1ccc(C2=CCCCCC2)cc1` returned a melting point of 36 to 38 °C.
Consider `CCn1cc(C(=O)O)c(=O)c2cc(F)c(C3NCC4CCC3N4C)c(F)c21` (stereo not given), for which the melting point lay within 184 to 187 °C.
Molecule `CCN(C1CC(C)(C)Oc2ccc(OCc3cc(OC)ccn3)cc21)S(C)(=O)=O` (stereo not given) came in with a melting point of 87 to 89 °C.
Under `Nn1nc(-c2ccc(Cl)cc2)cc1OCCN1CCCC1` stands 131 °C.
In the case of `CCn1c(=O)c2cnc(N)nc2n(CC)c1=O`, the melting point was in the range of 230 to 232 °C.
Under `Ic1ccc(-c2cccnc2)cc1` stands 112 to 115 °C.
In turn, `CCOC(=O)C(C)Sc1ncnc2c(O)n(C)nc12` (stereo not given) came in with a melting point of 127 to 131 °C.
`O=C(CN1CCCCC1)Nc1ccc2cc3ccc(NC(=O)CN4CCCCC4)cc3nc2c1` came in with a melting point of 192 to 194 °C.
With `CCN(c1ccc(C(=O)Nc2cn3cc(Cl)ccc3n2)cc1)S(C)(=O)=O`, the melting point lay in the range of 245 to 247 °C.
Under `Cc1cccc2[nH]c(=O)c(=O)[nH]c12` stands 325 °C.
For `Clc1ncnc2[nH]nc(-c3ccccc3)c12`, the melting point was more than 250 °C.
In the case of `O=C(O)C[C@H](NC(=O)/C=C/C(=O)c1ccccc1)C(=O)O`, the melting point is 154 to 156 °C.
With `CCN(CC)CC1CCCCN1CC(=O)N1c2nc(C)cc(C)c2NC(=O)c2cccc(C)c21` (stereo not given), the melting point fell in the range of 213 to 215 °C.
`CN(C)CCCn1c(-c2ccccc2)cc2c1CCS(=O)(=O)C2` came in with a melting point of 123 to 125 °C.
Take `Cc1c(C)c2c(c(C)c1O)CC[C@@](C)(CCCl)O2`: the melting point came out at 111 °C.
Molecule `CCCC(N(NC(=O)OC(C)(C)C)C(=O)c1cc(C)cc(C)c1)C(C)(C)C` (stereo not given) yielded a melting point of 116 to 118 °C.
Under `CCOC(=O)c1cnc2c(OC)nccc2c1Nc1ccccc1C` stands 158 °C.
Under `CCOC(=O)C1COc2c(C=O)cc(Cl)c(Cl)c2O1` (stereo not given) stands 110 to 113 °C; under `CC(C)c1cn2ccccc2c1S(=O)(=O)c1ccc(OCCCN2CCN(C(c3ccccc3)c3ccccc3)CC2)cc1`, 170 °C; under `CC1(C)C=C(C(=O)NCCC#N)c2cc(C(F)(F)C(F)(F)F)ccc2O1`, 163 to 164 °C.

(Values after a melting point compilation (Tetko et al.; mined from patent text by program, amines drawn as free bases though some values may be those of a salt).)
